Values joined by “and” are separate entries in the source; they are usually repeats but may differ in a detail not shown here. Equal values may be shown once.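 Five concentrations, 48 hours, 96-well plates. GI50 = concentration required for 50% inhibition of growth. TGI marks complete inhibition of growth.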
Columns and labels:
Experiment in all cases: DTP human tumour cell line panel, 48 h
HL-60(TB) leukemia = test system: HL-60(TB) leukemia
IGROV1 ovarian = test system: IGROV1 ovarian
MCF7 breast = test system: MCF7 breast
MDA-MB-435 = test system: MDA-MB-435
NCI/ADR-RES ovarian = test system: NCI/ADR-RES ovarian
PC-3 prostate = test system: PC-3 prostate
RPMI-8226 leukemia = test system: RPMI-8226 leukemia
SF-295 CNS = test system: SF-295 CNS
SK-MEL-28 melanoma = test system: SK-MEL-28 melanoma
SN12C renal = test system: SN12C renal
A498 renal = test system: A498 renal

SMILES	TGI (HL-60(TB) leukemia)	TGI (IGROV1 ovarian)	TGI (MCF7 breast)	TGI (MDA-MB-435)	TGI (NCI/ADR-RES ovarian)	TGI (PC-3 prostate)	TGI (RPMI-8226 leukemia)	TGI (SF-295 CNS)	TGI (SK-MEL-28 melanoma)	TGI (SN12C renal)	TGI (A498 renal)	GI50 (A498 renal)	GI50 (MDA-MB-435)	GI50 (NCI/ADR-RES ovarian)	GI50 (RPMI-8226 leukemia)	GI50 (SF-295 CNS)	GI50 (SN12C renal)
Oc1c(N2CCCCC2)cc(-c2cc(N3CCCCC3)c(O)c3ccccc23)c2ccccc12	> 100 µM	> 100 µM	59.2 µM	23.2 µM	> 100 µM	> 100 µM	> 100 µM	> 100 µM	40.9 µM	> 100 µM	–	–	–	–	–	–	–
C[C@@H](CC(=O)OCc1ccccc1)OC1OC(COC(=O)C(C)(C)C)C(OC(=O)C(C)(C)C)C(OC(=O)C(C)(C)C)C1OC(=O)C(C)(C)C (some centres not stated)	> 100 µM	> 100 µM	> 100 µM	> 100 µM	> 100 µM	> 100 µM	> 100 µM	> 100 µM	> 100 µM	> 100 µM	> 100 µM	–	–	–	–	–	–
COc1ccc(/C(Nc2ccccc2)=C(\CCl)c2ccccc2)cc1OC	50 µM	> 100 µM	> 100 µM	> 100 µM	> 100 µM	> 100 µM	> 100 µM	> 100 µM	> 100 µM	> 100 µM	> 100 µM	–	–	–	–	–	–
CC(=O)c1ccc(N=NN2CCCC2)cc1	> 100 µM	> 100 µM	> 100 µM	> 100 µM	> 100 µM	> 100 µM	–	> 100 µM	–	> 100 µM	37.3 µM	–	–	–	–	–	–
COC(=O)C1CCC(=O)N1CN(C(C)=O)c1cccc(O)c1 (configuration not stated)	> 100 µM	> 100 µM	> 100 µM	> 100 µM	> 100 µM	> 100 µM	> 100 µM	> 100 µM	> 100 µM	> 100 µM	> 100 µM	–	–	–	–	–	–
CCOC(=O)c1c(NC(=O)c2ccccc2)c(C#N)c2n1CCCCC2	> 100 µM	> 100 µM	> 100 µM	> 100 µM	> 100 µM	> 100 µM	> 100 µM	> 100 µM	> 100 µM	> 100 µM	–	–	–	–	–	–	–
COC(=O)[C@@H]1CO[C@H](C(C)(C)C)N1C(=O)N1C=CC(=O)C[C@H]1C	> 100 µM	> 100 µM	> 100 µM	> 100 µM	> 100 µM	> 100 µM	> 100 µM	> 100 µM	> 100 µM	> 100 µM	> 100 µM	–	–	–	–	–	–
Cc1c(C)c(S(=O)(=O)N(CCCCN)OCCCN)c(C)c2c1OC(C)(C)CC2	> 100 µM	20.2 µM	> 100 µM	45.1 µM	> 100 µM	23.3 µM	66.5 µM	40.6 µM	50.7 µM	> 100 µM	41.6 µM	–	–	–	–	–	–
NC1=NC2(COC(c3ccccc3)(c3ccccc3)c3ccccc3)OC(COC(c3ccccc3)(c3ccccc3)c3ccccc3)C(O)C2O1 (configuration not stated)	> 100 µM	> 100 µM	> 100 µM	> 100 µM	> 100 µM	> 100 µM	52.4 µM	> 100 µM	> 100 µM	> 100 µM	> 100 µM	–	–	–	–	–	–
N#Cc1ccccc1OCCOc1ccccc1C#N	> 100 µM	> 100 µM	> 100 µM	> 100 µM	> 100 µM	> 100 µM	> 100 µM	> 100 µM	> 100 µM	> 100 µM	> 100 µM	–	–	–	–	–	–
O=c1[nH]c(N/N=C\C(O)C(O)C(O)C(O)CO)nc2ccccc12 (configuration not stated)	> 100 µM	> 100 µM	> 100 µM	> 100 µM	> 100 µM	> 100 µM	> 100 µM	> 100 µM	> 100 µM	> 100 µM	> 100 µM	–	–	–	–	–	–
CCOc1cnc(C(O)(c2ccccc2)c2ccccc2)o1	> 100 µM	> 100 µM	> 100 µM	> 100 µM	> 100 µM	> 100 µM	> 100 µM	> 100 µM	> 100 µM	> 100 µM	> 100 µM	–	–	–	–	–	–
O=C1CC(O)c2cscc21 (configuration not stated)	> 100 µM	> 100 µM	> 100 µM	> 100 µM	> 100 µM	> 100 µM	> 100 µM	> 100 µM	> 100 µM	> 100 µM	> 100 µM	–	–	–	–	–	–
[B]C(=O)NC(CC(C)C)C(=O)NCC(=O)NC1c2ccsc2C(=O)C1O (configuration not stated) (tested in a mixture with another compound)	> 100 µM	> 100 µM	> 100 µM	> 100 µM	> 100 µM	> 100 µM	> 100 µM	> 100 µM	> 100 µM	> 100 µM	> 100 µM	–	–	–	–	–	–
Cc1[nH]n(-c2nc3c(c(=O)[nH]2)CCCC3)c(=O)c1CCO	> 100 µM	> 100 µM	> 100 µM	> 100 µM	> 100 µM	> 100 µM	–	> 100 µM	> 100 µM	> 100 µM	> 100 µM	–	–	–	–	–	–
Cc1cc2nc3c(C#N)c(-c4ccccc4)/c(=C\Nc4ccc(F)cc4)c(=O)n3c2cc1C	–	> 100 µM	> 100 µM	> 100 µM	> 100 µM	> 100 µM	> 100 µM	> 100 µM	> 100 µM	> 100 µM	> 100 µM	–	–	–	–	–	–
C[C@H]1CC[C@@]2(OC1)O[C@H]1C[C@H]3[C@@H]4CC[C@@H]5C[C@@H](OC6OC(CO)C(O)C(O)C6OC6OC(CO)C(O)C(O)C6O)CC[C@]5(C)[C@H]4CC[C@]3(C)[C@H]1[C@@H]2C (some centres not stated)	3.25 µM	4.14 µM	3.8 µM	3.88 µM	5.03 µM	3.84 µM	3.97 µM	3.95 µM	–	3.77 µM	–	–	–	–	–	–	–
Cc1cc(O)c(/C=N/C(N)=S)c(=O)o1	41.2 µM	> 100 µM	> 100 µM	> 100 µM	> 100 µM	> 100 µM	–	> 100 µM	–	> 100 µM	–	–	–	–	–	–	–
COc1cc([C@@H]2c3cc4c(cc3[C@@H](Nc3ccc(NC(=O)c5cc([N+](=O)[O-])cn5C)cc3)[C@H]3COC(=O)[C@H]23)OCO4)cc(OC)c1O	0.201 µM and 0.0837 µM	–	> 31.6 µM	> 100 µM	> 31.6 µM	> 100 µM and 12.5 µM	0.116 µM	–	> 100 µM	0.262 µM and 0.437 µM	0.402 µM and 0.476 µM	0.0233 µM and 0.0897 µM	0.415 µM	2.17 µM	< 0.01 µM	0.0513 µM and 0.0793 µM	0.0231 µM and 0.055 µM

Source: PubChem BioAssay (NCI)
